Here are results for 3 substances from US9452195B2, “Use of CHEC peptides to treat neurological and cardiovascular diseases and disorders” (Drexel University, priority 2010, dated 2016).

For one test, the system named is phospholipase A2 (sPLA2). As to conditions: statement referring to earlier patents and applications; cited from earlier work.
The next test relates to neuron. The settings on record: cited from earlier work.
For test [1], the system named is hippocampal neuronal activity in kainic acid-treated rats. Put plainly: Multiunit activity in CA1 cell field of hippocampus of kainic acid treated rats. As to conditions: CHEC-9 1 mg/kg orally 40 min before KA 10 mg/kg IP. Type of test: in vivo, rat. An excerpt:
FIG. 1, is a graph depicting multiunit activity recorded from the CA1 cell field of the hippocampus of awake, freely moving kainic acid-treated rats that have been treated either with CHEC-9 or vehicle. Multiunit activity is presented as impulses recorded per second and provided as a percentage of baseline activity measured prior to seizure induction.
Rats were implanted with a multichannel electrode bundle placed in the CA1 cell field of the hippocampus one week prior to the experiment. Baseline hippocampal neuronal activity (impulses per second) was collected during a 30 minute control period. After 30 minutes of baseline neuronal activity was collected, either CHEC-9 (1 mg/kg) or vehicle was administered orally 40 min prior to IP administration of kainic acid (10 mg/kg). The duration of the KA administration varied. Neuronal activity in response to KA administration is presented as % of baseline activity (FIG. 1).

Test [2] has as its system KA induced motor seizures in rats. Put plainly: Kainic acid (KA) induced motor seizures in rats, graded by Racine scale. Format: in vivo, rat. Further details: key to Max Seizure Stage: 1: hypoactivity, mouth and facial automatism; 2: head nodding and mastication; 3: forelimb clonus without rearing; 4: bilateral forelimb clonus and rearing; 5: rearing and loss of posture; Status epilepticus: stage 4-5 lasting for 30 min,. The procedure: Kainic acid (KA) was administered intraperitoneal (IP) to rats at doses ranging from […]. Rats age postnatal day (P) 12-15 were administered 2 mg/kg KA. Rats age P35-40 were administered 6 mg/kg KA. The KA was delivered in a constant volume of phosphate buffer (5 ml/kg) and reliably produced motor seizure activity.
Following IP administration of KA, rats were video-recorded for 3 hours, and then daily for 3 hours. The video recordings are later scored blind. The severity and latency of seizures is graded for P35 rats by a classical scale shown in Table 1 (Racine, 1972, Electroencephalog. Clin. Neurophysiol. 32:281-294).
Rats (250-300 g) are done in pairs and administered either a control peptide/vehicle or CHEC peptide in vehicle at various intervals pre- or post KA treatment. Control or CHEC peptide are administered either 4, 2 or 0.5 hours pre-KA or 0.25, and 0.5 hrs post-KA. The effects of CHEC-7 and CHEC-9 are compared because the peptides have different pharmakinetic profiles in rat.
Forty minutes prior to KA administration, the rats were administered either control peptide or CHEC-9 at the indicated dosages and routes of administration. The resulting motor seizures were graded as described elsewhere herein. […] In one set of experiments, rats were pre-fed lecithin or phosphatidylcholine prior to administering the KA.

Regarding CAHAQAESC [CHEC-9 peptide variant], the “inhibition of phospholipase A2 / sPLA2” value in the test with phospholipase A2 (sPLA2) is reported as “inhibit phospholipase A2”. Also, in the test with neuron, the neuron protective activity entry was “also has neuron protective activity”.
On to CHEASAAQC [CHEC-9], for which the “inhibition of phospholipase A2 / sPLA2” value in the test on phospholipase A2 (sPLA2) is recorded as “inhibit phospholipase A2”. Further, the “seizure symptoms by the end of the experiment” value in test [1] (vehicle rat reached status epilepticus) was “no obvious symptoms”. In addition, the “effect of KA on neuronal activity (multiunit activity, % of baseline)” value in test [1] (versus vehicle) is “much smaller effect of KA on neuronal activity”. Besides, the “Max Seizure Stage” value in test [2] (individual rat, C9 0.5 mg/kg sc 40 min before KA 6 mg/kg ip) was determined as 2; in test [2] (individual rat, C9 1.0 mg/kg po 40 min before KA 5 mg/kg ip), 1; in test [2] (individual rats, C9 0.5 mg/kg sc 40 min before KA 5 mg/kg ip), 1; in test [2] (individual rats, C9 1.0 mg/kg po 40 min before KA 10 mg/kg ip, female rats) it was 3; in test [2] (individual rats, C9 1.0 mg/kg po 40 min before KA 10 mg/kg ip, male rats), 1. The “likelihood of severe motor seizures versus vehicle control” value in test [2] (rats 250-300 g, peptide given 40 min before KA) is recorded as “vehicle control were more likely to exhibit severe motor seizures than rats that were administered CHEC-9”.
For the substance CHEASQC [CHEC-7], the “inhibition of phospholipase A2 / sPLA2” value with phospholipase A2 (sPLA2) is on record as “even more potent as a sPLA2 inhibitor than CHEC-9”.
